In this experiment the target is T1, Komplexbildung von β-Catenin und LEF-1 (Homo sapiens, UniProt P35222).
T1 construct: made in house
T1 sequence (P35222 1-781): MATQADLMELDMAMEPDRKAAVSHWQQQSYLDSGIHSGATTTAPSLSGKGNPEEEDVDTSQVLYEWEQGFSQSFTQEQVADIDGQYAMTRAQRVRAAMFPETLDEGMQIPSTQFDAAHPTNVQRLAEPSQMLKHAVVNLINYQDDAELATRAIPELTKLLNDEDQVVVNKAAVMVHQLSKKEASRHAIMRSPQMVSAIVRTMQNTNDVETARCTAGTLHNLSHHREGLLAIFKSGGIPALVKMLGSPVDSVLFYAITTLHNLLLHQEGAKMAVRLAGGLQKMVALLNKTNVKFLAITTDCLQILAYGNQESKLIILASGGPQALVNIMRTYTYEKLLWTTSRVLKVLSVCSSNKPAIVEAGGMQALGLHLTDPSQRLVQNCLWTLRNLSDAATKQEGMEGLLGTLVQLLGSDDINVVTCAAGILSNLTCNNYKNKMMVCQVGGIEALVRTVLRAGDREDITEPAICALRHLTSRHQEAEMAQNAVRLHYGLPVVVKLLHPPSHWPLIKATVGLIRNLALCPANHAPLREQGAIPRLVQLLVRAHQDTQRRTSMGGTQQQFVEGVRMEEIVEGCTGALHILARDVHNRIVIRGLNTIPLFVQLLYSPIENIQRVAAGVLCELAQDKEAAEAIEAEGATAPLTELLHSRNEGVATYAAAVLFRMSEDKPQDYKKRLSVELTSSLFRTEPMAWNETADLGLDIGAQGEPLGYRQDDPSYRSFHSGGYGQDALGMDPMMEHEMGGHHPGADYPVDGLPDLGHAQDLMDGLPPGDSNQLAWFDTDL
The experiment is described as follows: ELISA for inhibition of complex formation of β-Catenin and LEF-1 (recombinant His-tagged proteins, detection with antibody PA2). Conditions: recombinant LEF-1 adsorbed, 50-100 ng β-Catenin, 10% DMSO final, substances 1 µM to 10 mM, read-out: IC50 Hemmung der Komplexbildung von β-Catenin und LEF/TCF. In kind it is binding. From the text: Im Einzelnen wurden folgende Untersuchungen durchgerührt: • 1. Identifizierung von separaten, essentiellen Bindungsstellen von β-Catenin für die Interaktion mit LEF-1/TCF-4, mit den 20 und 15 Aminosäure-Repeats von APC oder Conductin/Axin Basierend auf der Röntgen-Kristall-Strukturanalyse der Armadillo-Domäne von β-Catenin (Huber et al., 1997) wurden ausgewählte basische und aromatische Aminosäure-Reste durch Alanin-Reste substituiert und die Punktmutanten auf Interaktion mit den Bindungspartnern von β-Catenin im Hefe-2-Hybrid-System analysiert (Abb. 1). Die Mutationen, welche spezifische Interaktionen blockieren, bilden Cluster in separaten Subregionen der Domäne. Sie markieren die essentiellen Kontaktpunkte in den spezifischen Bindungsstellen für die Interaktion mit LEF/TCF (Lys 435, Arg 469, His 470, Lys 508, Arg 515), mit den 20 Aminosäure-Repeats von APC (Trp 383, Lys 345), mit den 15 Aminosäure-Repeats von APC (Arg 386), oder mit Conductin (Phe 253, His 260, Lys 292). Die erweiterten Interaktionsstellen sind der Abb 1 zu entnehmen. • 2. Analyse der Moleküloberfläche von β-Catenin im Bereich der essentiellen Bindungsstelle für LEF/TCF Ausgehend von den Daten zur Röntgenkristallstruktur von β-Catenin wurde mit den Programmen Grasp und LUDI (MSI) die Moleküloberfläche im Bereich der Bindungsstelle berechnet. Es ist hierdurch gelungen eine hydrophobe Tasche zu identifizieren (Abb.2), die von den folgenden Aminosäuren umrandet ist: Val 358, Met 363, Ala 391, Ala 392, Thr 393, Lys 394, Gln 395, Met 398, Leu 401, Leu 402, Ile 423, Asn 426, Leu 427, Thr 428, Cys 429, Asn 430, Asn 431, Asn 434, Met 437, Val 438. Diese Tasche lokalisiert in engster Nachbarschaft zu der essentiellen Bindungsstelle für LEF/TCF. Sie ist von großer Bedeutung für die Computer-gestützte Durchmusterung von Substanzbibliotheken zur Selektion von Molekülen, die in dieser Tasche binden. Die Idee primär hydrophobe Wechselwirkungen in der Tasche zum Ausgangspunkt zu wählen, hat den energetischen Vorteil, das die Substanzen nicht mit der Hydrathülle der geladenen Aminosäure-Reste der Oberfläche kompetieren müssen. Diese Substanzen stellen somit nach gezielter Modifikation potente Therapeutika zur Behandlung von Tumoren dar, da die Interaktion von LEF/TCF mit β-Catenin ein frühes Ereignis zur Entstehung von Tumoren darstellt. Sie wurden experimentell auf ihre Fähigkeit zur Hemmung der onkogenen Interaktion getestet (ELISA) und sollen modifiziert werden. Das molekulare Modellieren der Substanzen in der Tasche basiert auf der Idee, die Wechselwirkungen in der Tasche selbst zu stabilisieren und zusätzliche Kontakte zu den essentiellen Aminosäure-Resten der LEF/TCF-Bindungsstelle zu schaffen. Durch diese Strategie sollen die Substanzen in ihrer Wirkung optimiert werden. • 3. Identifizierung von Substanzen die in der hydrophoben Tasche binden Es wurden Computer-gestützt Substanzbibliotheken durchmustert und deren Moleküle auf stabilisierende Wechselwirkungen in der hydrophoben Tasche ausgewählt. Die ausgewählten Substanzen wurden auf Hemmung der Komplexbildung von β-Catenin und LEF-1 im ELISA experimentell getestet. […] Diese Kernstruktur besteht aus einem aromatischem Ring (beim Cefamandole am Kohlenstoffatom 17, Numerierung siehe "Positiv-Liste")), einer organischen Komponente, die der Struktur des Ala-Ala Dipeptides ähnelt, und einem β-Lactam- und Thiazolring. Mit dem aromatischen Ring wurde die Substanz in der beschriebenen hydrophoben Tasche eingepaßt. […]
(ELISA stands for enzyme-linked immunosorbent assay.)

Take `CCCCCCCCCCCCCCCCCC(=O)OC[C@H]1OC(O)[C@H](NC(C)=O)[C@@H](O[C@H](C)C(=O)N[C@@H](C)C(=O)N[C@H](CCC(=O)O)C(N)=O)[C@@H]1O` (stereo partly drawn) [AC-(6-O-Stearoyl)-Muramyl-Ala-D-Isoglutamine]: the IC50 came to 100 µM.

In the case of `CC1=C(C(=O)O)N2C(=O)[C@@H](NC(=O)[C@H](N)c3ccc(O)cc3)[C@H]2SC1` [Cefadroxil], the IC50 is 50 to 100 µM.

`Cn1nnnc1SCC1=C(C(=O)O)N2C(=O)[C@@H](NC(=O)[C@H](OC=O)c3ccccc3)[C@H]2SC1` [Cefamandole-Nafate]: the IC50 was 50 to 100 µM.

Consider `Cn1nnnc1SCC1=C(C(=O)O)N2C(=O)[C@@H](NC(=O)[C@H](O)c3ccccc3)[C@H]2SC1` [Cefamandole], for which the IC50 amounted to 25 µM.

Consider `NC(=O)c1cc[n+](CC2=C(C(=O)O)N3C(=O)[C@@H](NC(=O)[C@@H](c4ccccc4)S(=O)(=O)[O-])[C@H]3SC2)cc1` [Cefsulodine], for which the IC50 was 50 to 100 µM.

Source of the values: EP1214345B1, “AGENTS FOR TREATING HUMAN DISEASES, ESPECIALLY FOR TREATING TUMORS SUCH AS COLONIC CANCERS AND MELANOMAS OR FOR REGENERATING TISSUE AND PROMOTING HAIR GROWTH” (MAX-DELBRÜCK-CENTRUM FÜR MOLEKULARE MEDIZIN, priority 1999, dated 2001).
